{
  "source": "patent US20150297573A1",
  "about": "“TPL2 KINASE INHIBITORS FOR PREVENTING OR TREATING DIABETES AND FOR PROMOTING Beta-CELL SURVIVAL” (INSERM (Institut National De La Santé Et De La Recherche …, priority 2012, published 2015)",
  "key": {"ERK1/2 [1]": {"tested_on": "ERK1/2", "assay": "ERK1/2 phosphorylation in INS-1E β-cells (Western blotting)", "format": "cell-based, rat", "details": "INS-1E cells, Tpl2 inhibitor 3 μM", "procedure": "(§1) Quantification of three to five experiments is shown.\n(§2) The rat β-cell line INS-1E was provided by Dr. Maechler (Department of Cell Physiology and Metabolism, Faculty of Medicine, University of Geneva, Geneva, Switzerland). Cells (passages 60-95) were maintained in culture as monolayer at 37° C. in humidified atmosphere with 5% CO2, using RPMI 1640 medium containing 11.1 mM glucose, and supplemented with 7.5% heat-inactivated FCS, 1 mM sodium pyruvate, 10 mM HEPES, 2 mM glutamine, 50 μM β-mercaptoethanol, 100 U/ml penicillin, and 100 μg/ml streptomycin. Experiments were performed in INS-1E cells at ˜70% confluence in 6-well plates.\n(§3) Tpl2 expression was specifically silenced in INS-1E cells using a validated set of 4 different 19-nucleotides siRNA duplexes (“ON-TARGETplus SMARTpool”, L-091828-01-0005) purchased from Dharmacon (ABgene Ltd, part of Thermo Fisher Scientific, Waltham, Mass.). […] Briefly, groups of 500,000 INS-1E cells were maintained in culture in the absence of penicillin and streptomycin for 24 h before being transfected with 40 nM siRNA-Lipofectamine™ 2000 complexes prepared in Opti-MEM medium at a 2:1 ratio. Medium was replaced 6 h after transfection with fresh antibiotic-free RPMI medium supplemented with 7.5% heat-inactivated FCS. […] The transfection efficiency was assessed using the “siGLO Green Transfection Indicator”. […]"}, "p90RSK [2]": {"tested_on": "p90RSK", "assay": "p90RSK phosphorylation in INS-1E β-cells (Western blotting)", "format": "cell-based, rat", "details": "INS-1E cells, Tpl2 inhibitor 3 μM", "procedure": "as §1, §2, §3"}, "ERK1/2 [3]": {"tested_on": "ERK1/2", "details": "islets from C57BL/6 mice; Tpl2 inhibitor 3 μM; cytokine mix 20 min", "procedure": "(§4) 2D and 3B: 72 h after the first 40 nM siRNA transfection, INS-1E cells were treated or not, as described above. Phosphorylation and total protein amount were analyzed by Western blotting as described above. […] Data are expressed as ratio of phosphorylated on total protein amount and as fold of phosphorylation over basal in cells without treatment."}, "[4]": {"tested_on": "p46/p54 c-Jun N-terminal kinases (JNK)", "details": "INS-1E cells", "procedure": "as §4"}, "p90RSK [5]": {"tested_on": "p90RSK", "details": "islets from C57BL/6 mice; Tpl2 inhibitor 3 μM; cytokine mix 20 min", "procedure": "as §4"}, "p38": {"tested_on": "p38", "assay": "p38 phosphorylation in INS-1E β-cells (Western blotting)", "format": "cell-based, rat", "details": "INS-1E cells", "procedure": "as §1\nTpl2 expression was specifically silenced in INS-1E cells using a validated set of 4 different 19-nucleotides siRNA duplexes (“ON-TARGETplus SMARTpool”, L-091828-01-0005) purchased from Dharmacon (ABgene Ltd, part of Thermo Fisher Scientific, Waltham, Mass.). […] Briefly, groups of 500,000 INS-1E cells were maintained in culture in the absence of penicillin and streptomycin for 24 h before being transfected with 40 nM siRNA-Lipofectamine™ 2000 complexes prepared in Opti-MEM medium at a 2:1 ratio. Medium was replaced 6 h after transfection with fresh antibiotic-free RPMI medium supplemented with 7.5% heat-inactivated FCS. A second transfection was performed 24 h after the first one to improve the transfection efficiency. The transfection efficiency was assessed using the “siGLO Green Transfection Indicator”. All assays were performed at least 50 h after the first transfection.\nProteins were visualized by enhanced chemiluminescence detection."}, "human pancreatic islets": {"tested_on": "human pancreatic islets", "assay": "Glucose-stimulated insulin secretion (stimulation index) of human islets exposed to cytokines", "format": "cell-based", "details": "Tpl2 inhibitor 3 μM, cytokine mix 72 h, stimulation index 20 mM/2.8 mM glucose", "description": "Human islets were treated in RPMI medium containing 0.2% human albumin with or without Tpl2 inhibitor (3 μM) and/or Exendin-4 (20 nM) during 2 h and then stimulated or not with Tpl2 inhibitor (3 μM), Exendin-4 (20 nM) and/or a cytokine mixture (IL-1β (1000 U/ml), TNF-α (1000 U/ml) and IFN-γ (1000 U/ml) for 72 h, and then submitted to a glucose-response test in KRB buffer. The stimulation index is defined as the ratio of stimulated (20 mM glucose) to basal (2.8 mM glucose) insulin secretion. Each column represents the mean±SEM of 5 replicates (each replicate corresponds to islets from one human donor). *P<0.05, **P<0.01, and ***P<0.001 vs cytokine effect in control cells.\nINS-1E cells, mouse (5-10 islets per condition) or human islets (500-2000 IEQ per condition) were preincubated at 37° C. during 2 h with or without Tpl2 inhibitor (3 μM) and Exendin-4 (20 nM), and then incubated for different times (0, 8, 16, 24, 36, 48 or 72 h) with or without Tpl2-inhibitor (3 μM), IL-1β alone (10000 U/ml, 20 μg/ml), a cytokine mix (IL-1β (100 U/ml, 0.2 ng/ml), TNF-α (500 U/ml, 50 ng/ml), and IFN-γ (100 U/ml, 30 ng/ml) for INS-1E cells and mouse islets; and IL-1β (1000 U/ml, 2 ng/ml), TNF-α (1000 U/ml, 28 ng/ml) and IFN-γ (1000 U/ml, 833 ng/ml) for human islets), and/or Exendin-4 (20 nM). […]"}, "db/db mice": {"tested_on": "db/db mice", "procedure": "FIG. 8: Effect of in vivo inhibition of Tpl2 on initial and body weights. Five-week-old db/db mice were obtained from Janvier Ltd and fed with a standard diet (4% fat) all over the study. All mice had free access to food and fresh water and were kept on a 12 h-day/12 h-night cycle. Body weights were recorded until the day of sacrifice prior to intraperitoneal (ip) administration of glucose, insulin or the daily injection of 2.5 mg/kg Tpl2 inhibitor or of the corresponding vehicle.\nFIG. 9: Effect of in vivo inhibition of Tpl2 on fasting glucose and plasma insulin levels. Five-week-old db/db mice were obtained from Janvier Ltd and fed with a standard diet (4% fat) all over the study. All mice had free access to food and fresh water and were kept on a 12 h-day/12 h-night cycle. Fast and blood glucose concentrations were determined with a (Verio Onetouch, Lifescan, Johnson and Johnson Company) glucometer using blood sampled from the tail vein on mice receiving daily injection of 2.5 mg/kg Tpl2 inhibitor or of the corresponding vehicle. Serum insulin levels were quantified by radioimmunoassay (RIA rat insulin kit, Millipore) using blood sampled from the tail vein on the first day of the study or jugular arteries the day of the sacrifice.\n(§5) FIG. 10: Effect of in vivo inhibition of Tpl2 on glucose tolerance and insulin tolerance. Five-week-old db/db mice were obtained from Janvier Ltd and fed with a standard diet (4% fat) all over the study. All mice had free access to food and fresh water and were kept on a 12 h-day/12 h-night cycle. Mice received daily injection of 2.5 mg/kg Tpl2 inhibitor or of the corresponding vehicle. Glucose tolerance tests were performed by ip administration of 1-2 g/kg glucose after a 16 h overnight fast and blood glucose concentrations were determined with a (Verio Onetouch, Lifescan, Johnson and Johnson Company) glucometer using blood sampled from the tail vein. Insulin tolerance tests were carried out in a similar manner following the ip administration of 0.75 U insulin per kg body weight to non-fasted mice.\nas §5, with “Five-week-old” for “FIG. 10: Effect of in vivo inhibition of Tpl2 on glucose tolerance and insulin tolerance. Five-week-old”, “Body weights were recorded until the day of sacrifice prior to intraperitoneal (ip) administration of glucose, insulin or the” for “Mice received”, “mice. Serum insulin levels were quantified by radioimmunoassay (RIA rat insulin kit, Millipore) using blood sampled from the tail vein on the first day of the study or jugular arteries the day of the sacrifice.” for “mice.”\nThe progressive development of type 2 diabetes as observed in db/db mice is associated with increased body weight, insulin resistance, hyperglycemia and impaired glucose tolerance."}, "ERK1/2 [6]": {"tested_on": "ERK1/2", "details": "human islets; Tpl2 inhibitor 3 μM 2 h; cytokine mix 20 min", "description": "Human islets were isolated, cultured 24-72 h for recovery in CMRL medium containing 10% SVF, treated with KRBH buffer with or without Tpl2 inhibitor (3 μM) during 2 h and then stimulated or not with a cytokine mix (IL-1β (100 U/ml), TNF-α (500 U/ml), and IFNγ(100 U/ml)) for 20 min. Lysates were subjected to western blot analysis with antibodies against phosphorylated ERK1/2 (1:1000) or β-actin (1:2000). […] Data are expressed as ratio of phosphorylated ERK2 on β-actin amount and as a fold increase over basal in islets without treatment. Data are expressed as the means±SEM. *P<0.05, vs stimulus effect in control cells.\nHuman pancreases were harvested from five brain-dead non-obese non-diabetic donors in agreement with the French Agence de la Biomedecine and the local Institutional Ethical Committee. […]\nHuman islets were isolated, cultured 24-72 h for recovery in CMRL medium containing 10% SVF, treated with KRBH buffer with or without Tpl2 inhibitor (3 μM) during 2 h and then stimulated or not with a cytokine mix (IL-1β (100 U/ml), TNF-α (500 U/ml), and IFNγ (100 U/ml)) for 20 min. […] Data are expressed as ratio of phosphorylated ERK2 on b-actin amount and as a fold increase over basal in islets without treatment. Data are expressed as the means±SEM. *P<0.05, vs stimulus effect in control cells."}, "isolated mouse islets": {"tested_on": "isolated mouse islets", "details": "Tpl2 inhibitor 3 μM, cytokine mix 24 h", "description": "D: Isolated mouse islets were stimulated or not with a cytokine mix (IL-1β (1000 U/ml), TNF-α (1000 U/ml) and IFN-γ (1000 U/ml)) in RPMI medium for 24 h. The caspase-3/7 activity was measured using the “Caspase-Glo® 3/7 Assay”.\nPancreatic islets were isolated from male 10- to 12-weeks-old C57BL/6 mice following the injection of approximately 2 ml of 1 mg/ml collagenase XI through the bile duct. The pancreases were then removed, incubated under agitation at 37° C. for 9 minutes to complete the digestion and the islets were separated from the exocrine pancreatic tissue using a Histopaque-1077 gradient. The islets were then washed in cold PBS supplemented with 1.2 mM CaCl2, 1 mM MgCl2, and 5.6 mM glucose, handpicked under microscope, separated in groups composed of 200-300 islets and maintained in culture at 37° C. (95% air and 5% CO2) in RPMI 1640 containing 11.1 mM glucose and supplemented with 10% FCS, 2 mM glutamine, 100 units/ml penicillin and 100 μg/ml streptomycin for at least 24 h before being used."}, "INS-1E cells [7]": {"tested_on": "INS-1E cells", "details": "Tpl2 inhibitor 5 μM, 24 h in conditioned medium of LPS-activated RAW264.7", "description": "RAW264.7 macrophages were maintained in DMEM containing 5% (vol/vol) heat-inactivated fetal bovine serum and antibiotics at 37° C. and 5% CO2/95% air atmosphere. RAW264.7 macrophages were incubated for 24 h with LPS (Lipopolysaccharide) (0.5 ng/ml), and the resulting conditioned medium was transferred onto INS-1E cells treated with or without Tpl2 inhibitor (5 μM). Lysates were subjected to Western blotting with antibodies against cleaved caspase-3 (1:1000), or HSP90 (1:1000). […] Data are expressed as ratio of cleaved caspase-3 on HSP90 protein amount, and as fold of cleaved caspase-3 over basal in cells in control culture medium without Tpl2 inhibitor treatment."}, "[8]": {"tested_on": "MEK, MK2, Src, protein kinase C, and EGF receptor", "details": "cited from earlier work"}, "INS-1E cells [9]": {"tested_on": "INS-1E cells", "assay": "Apoptosis of INS-1E cells (cleaved caspase-3 and cleaved PARP, Western blotting)", "description": "FIG. 5: Apoptotic effects of inflammatory cytokines in INS-1E cells and in mouse pancreatic islets under Tpl2 inhibition. A and C: INS-1E β-cells were treated in RPMI medium containing BSA 0.5% (A) or 7.5% SVF (C) with or without Tpl2 inhibitor (3 μM) during 2 h and then stimulated or not with Tpl2 inhibitor (3 μM) and IL-1β alone (20 ng/ml) for 48 h (A) or the cytokine mixture (IL-1β (0.2 μg/ml), TNFα (50 ng/ml), and IFNγ (30 ng/ml) for 24 h (C). Lysates were subjected to Western blotting with antibodies against cleaved caspase-3 (1:1000), total and cleaved PARP (1:1000) or β-actin (1:5000). Quantification of four to ten independent experiments is shown. Data are expressed as ratio of cleaved caspase-3 or cleaved PARP on β-actin protein amounts, and as fold of these proteins over basal in cells without treatment. Data are presented as the means±SEM. *P<0.05, **P<0.01, and ***P<0.001 vs stimulus effect in control cells. B: INS-1E β-cells were stimulated or not in RPMI medium containing SVF 7.5% with each cytokine alone or a mixture of the three (IL-1β (0.2 ng/ml), TNFα (50 ng/ml), or IFNγ(30 ng/ml) for 24 h. Lysates were subjected to Western blotting with antibodies against cleaved caspase-3 (1:1000) or β-actin (1:5000). Dotted line represents 100% of caspase-3 amount from untreated control cells. Quantification of four independent experiments is shown. Data are expressed as a percentage of cleaved caspase-3 protein amount in untreated cells (caspase-3/β-actin protein amount ratio). Data are presented as the means±SEM. *P<0.05, **P<0.01, and ***P<0.001 vs untreated control cells."}, "[10]": {"details": "INS-1E cells, Tpl2 inhibitor 3 μM, IL-1β 20 ng/ml 48 h"}, "[11]": {"details": "INS-1E cells, Tpl2 inhibitor 3 μM, cytokine mix 24 h"}},
  "note": "Like-named read-outs stand apart in the source and are kept apart here.",
  "data": [
    {"smiles": "N#Cc1cnc2cnc(NCc3cccnc3)cc2c1Nc1ccc(F)c(Cl)c1", "note": "[Tpl2 inhibitor, 4-(3-Chloro-4-fluorophenylamino)-6-(pyridine-3-yl-methylamino)-3-cyano-[1,7]napthyridine]", "values": [
      {"measurement": "suppression of IL-1β-induced ERK1/2 phosphorylation", "setting": "ERK1/2 [1]; 2 h, IL-1β 20 ng/ml 20 min", "value": 60, "unit": "%"},
      {"measurement": "suppression of cytokine-induced ERK1/2 phosphorylation", "setting": "ERK1/2 [1]; cytokine mix IL-1β+TNF-α+IFN-γ 20 min", "value": "50-60%"},
      {"measurement": "inhibition of IL-1β-induced p90RSK phosphorylation", "setting": "p90RSK [2]; IL-1β 20 ng/ml 20 min, same extent as ERK1/2 (60%)", "value": "inhibited to the same extent"},
      {"measurement": "inhibition of cytokine-induced p90RSK phosphorylation", "setting": "p90RSK [2]; cytokine mix 20 min, same extent as ERK1/2 (50-60%)", "value": "inhibited to the same extent"},
      {"measurement": "inhibition of cytokine-stimulated ERK1/2 phosphorylation", "setting": "ERK1/2 [3]", "value": "efficient at inhibiting"},
      {"measurement": "effect on IL-1β-induced p46/p54 JNK phosphorylation", "setting": "[4]; 3 μM", "value": "no effect"},
      {"measurement": "effect on IL-1β-induced p46/p54 JNK phosphorylation", "setting": "[4]; 10 μM (data not shown)", "value": "no effect"},
      {"measurement": "inhibition of cytokine-stimulated p90RSK phosphorylation", "setting": "p90RSK [5]", "value": "efficient at inhibiting"},
      {"measurement": "effect on IL-1β-induced p38 phosphorylation", "setting": "p38; 3 μM", "value": "no effect"},
      {"measurement": "effect on IL-1β-induced p38 phosphorylation", "setting": "p38; 10 μM (data not shown)", "value": "no effect"},
      {"measurement": "prevention of cytokine-induced insulin secretion failure", "setting": "human pancreatic islets", "value": "~50", "unit": "%"},
      {"measurement": "body weights vs vehicle-treated db/db mice", "setting": "db/db mice; 2.5 mg/kg daily ip, 2 weeks", "value": "not different"},
      {"measurement": "tolerance to glucose challenges", "setting": "db/db mice; 2.5 mg/kg daily ip, after 7 days", "value": "significantly improved"},
      {"measurement": "insulin sensitivity (insulin tolerance test)", "setting": "db/db mice; 2.5 mg/kg daily ip, after 14 days", "value": "significant improvement"},
      {"measurement": "serum insulin level at fast", "setting": "db/db mice; 2.5 mg/kg daily ip, day 14, vehicle 11.3±1.2", "value": "4.3 ± 0.4", "unit": "ng/mL"},
      {"measurement": "blood glucose concentration at fast", "setting": "db/db mice; 2.5 mg/kg daily ip, day 14, vehicle 258.6±40.7", "value": "144.0 ± 15.5", "unit": "mg/dL"},
      {"measurement": "toxicity", "setting": "db/db mice; daily ip 2.5 mg/kg, 2 weeks", "value": "not toxic"},
      {"measurement": "inhibition of phosphorylation/activation of ERK1/2 induced by the cytokine mixture", "setting": "ERK1/2 [6]", "value": "significantly efficient at inhibiting"},
      {"measurement": "decrease of caspase-3/7 activity induced by the mixture of cytokines", "setting": "isolated mouse islets", "value": "~50", "unit": "%"},
      {"measurement": "decrease of cleaved caspase-3 induced by macrophage conditioned medium", "setting": "INS-1E cells [7]", "value": "around 55%"},
      {"measurement": "inhibition or activation of other protein kinases", "setting": "[8]; concentration <5 μM that prevents activation of the ERK1/2 cascade", "value": "No other protein kinase has been found to be inhibited or activated"},
      {"measurement": "selectivity over other related kinases (MEK, MK2, Src, protein kinase C, EGF receptor)", "setting": "[8]; concentrations below 5 μM", "value": "significant selectivity"},
      {"measurement": "decrease in cleaved PARP level induced by IL-1β", "setting": "INS-1E cells [9]; [10]", "value": "~30", "unit": "%"},
      {"measurement": "decrease in cleaved caspase-3 level induced by IL-1β", "setting": "INS-1E cells [9]; [10]", "value": "~45", "unit": "%"},
      {"measurement": "decrease in cleaved PARP level induced by the mixture of cytokines", "setting": "INS-1E cells [9]; [11]", "value": "~25", "unit": "%"},
      {"measurement": "decrease in cleaved caspase-3 level induced by the mixture of cytokines", "setting": "INS-1E cells [9]; [11]", "value": "~30", "unit": "%"},
      {"measurement": "INS-1E cell apoptosis with Tpl2 inhibitor alone", "setting": "INS-1E cells [9]; long term treatment, 3 μM, no cytokine", "value": "did not increase"}
    ]}
  ]
}
